The subject of the test is MIA PaCa-2 cells. Briefly: Gemcitabine treatment, cell viability by CCK-8 assay. The class given is cell-based, human. The note with it: method says 20 μM for 48 hr. The procedure: Gemcitabine Treatment Cells were seeded in 96-well plates at a density of 10^4 cells/well. […] Cell viability was accessed by CCK-8 assay following the manufacturer's instructions. Briefly, a mixture of 10 μL of CCK-8 and 190 μL media was added into each well, and the cells were incubated for another 1 hr. The absorbance of each well was measured at 450 nm using a microplate reader. Each experiment was performed in 6 repeats.
(Tetrazolium dyes change colour on reduction, which living cells bring about.)

Regarding `Nc1ccn([C@@H]2O[C@H](CO)[C@@H](O)C2(F)F)c(=O)n1` [gemcitabine], the “viability of malignant MIA PaCa-2 cells with vs without gemcitabine treatment” value is recorded as “dramatic decrease in viability”.
